Results published in PubChem BioAssay (NCI).
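96-well plates; 48 h exposure; 5 concentrations. Endpoints by linear interpolation between flanking doses. Not reached: highest tested concentration assigned. GI50 marks 50% less growth. TGI denotes the concentration required for complete inhibition of growth.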

What was measured:
Assay in all cases: DTP human tumour cell line panel, 48 h
SK-OV-3 ovarian = tested on: SK-OV-3 ovarian
HCT-15 colon = tested on: HCT-15 colon
UACC-62 melanoma = tested on: UACC-62 melanoma
RXF 393 renal = tested on: RXF 393 renal
SNB-78 CNS = tested on: SNB-78 CNS
CCRF-CEM leukemia = tested on: CCRF-CEM leukemia
SK-MEL-2 melanoma = tested on: SK-MEL-2 melanoma
M19-MEL melanoma = tested on: M19-MEL melanoma
MOLT-4 leukemia = tested on: MOLT-4 leukemia
SF-268 CNS = tested on: SF-268 CNS
OVCAR-4 ovarian = tested on: OVCAR-4 ovarian
NCI-H460 lung = tested on: NCI-H460 lung

Row | SMILES | TGI (SK-OV-3 ovarian) | TGI (HCT-15 colon) | TGI (UACC-62 melanoma) | TGI (RXF 393 renal) | TGI (SNB-78 CNS) | TGI (CCRF-CEM leukemia) | TGI (SK-MEL-2 melanoma) | TGI (M19-MEL melanoma) | TGI (MOLT-4 leukemia) | TGI (SF-268 CNS) | TGI (OVCAR-4 ovarian) | TGI (NCI-H460 lung) | GI50 (SK-OV-3 ovarian) | GI50 (HCT-15 colon) | GI50 (UACC-62 melanoma) | GI50 (CCRF-CEM leukemia) | GI50 (SK-MEL-2 melanoma) | GI50 (MOLT-4 leukemia) | GI50 (SF-268 CNS) | GI50 (OVCAR-4 ovarian)
1 | Cc1ccc(NC(=O)CC/C(CC(=O)C(C)(C)C)=N/NC(=O)c2cc3ccccc3cc2O)cc1C | > 100 µM | > 100 µM | 66 µM | > 100 µM | > 100 µM | 70.1 µM | > 100 µM | > 100 µM | > 100 µM | > 100 µM | > 100 µM | > 100 µM |  |  |  |  |  |  |  | 
2 | CCC12CCC[C@@]13C=C[C@H](O3)C(C)(C)C2=O (stereo partly drawn) | > 100 µM | > 100 µM | > 100 µM | > 100 µM | > 100 µM | > 100 µM | > 100 µM | > 100 µM | > 100 µM | > 100 µM | > 100 µM | > 100 µM |  |  |  |  |  |  |  | 
3 | O=C1c2ccccc2-c2c1c1ccccc1c(=O)n2CCCNCCNCCCn1c2c(c3ccccc3c1=O)C(=O)c1ccccc1-2 |  | 0.56 µM | 1.88 µM |  |  | 0.498 µM |  |  | > 100 µM | 2.5 µM | 4.56 µM |  | 1.33 µM | 0.0831 µM | 0.174 µM | 0.0142 µM | 2.02 µM | < 0.01 µM | 0.0166 µM | 0.694 µM
